A short description of experiment [1]: Inhibition of (Le(a)Le(x))14-BSA conjugate binding to mouse Anti-Le(a) monoclonal antibody SPM 522 preincubated with mAb for 1 hr followed by incubation with immobilized antigen BSA-conjugate for 3 hrs by competitive ELISA. In general terms: ELISA stands for enzyme-linked immunosorbent assay.
The species entered for a further experiment is Mus musculus. The experiment can be described thus: Inhibition of (Le(a)Le(x))14-BSA conjugate binding to mouse Anti-Le(a) monoclonal antibody SPM 522 assessed as change in free energy preincubated with mAb for 1 hr followed by incubation with immobilized antigen BSA-conjugate for 3 hrs by competitive ELISA relative to control. The following applies: time 4.0 hrs.

SMILES strings stand for the structures.

Six molecules from ChEMBL document CHEMBL5143575, “Anti-Lea monoclonal antibody SPM 522 recognizes an extended Lea epitope” (Bioorg Med Chem, 2022) can be followed below.

The term IC50 denotes the concentration that gives 50% inhibition. `CCCCCCO[C@@H]1O[C@H](CO)[C@@H](O[C@@H]2O[C@H](CO)[C@H](O)[C@H](O[C@@H]3O[C@H](CO)[C@@H](O)[C@H](O[C@@H]4O[C@H](CO)[C@H](O)[C@H](O)[C@H]4O)[C@H]3NC(C)=O)[C@H]2O)[C@H](O[C@@H]2O[C@@H](C)[C@@H](O)[C@@H](O)[C@@H]2O)[C@H]1NC(C)=O` (stereo in doubt) had an IC50 in experiment [1] of 1.35 mM. In the experiment filed under Mus musculus, the deltaG turned out to be 2.4 kcal/mol.
On the same counts, the results for `CCCCCCO[C@@H]1O[C@H](CO)[C@@H](O[C@@H]2O[C@H](CO)[C@H](O)[C@H](O[C@@H]3O[C@H](CO)[C@@H](O[C@@H]4O[C@@H](C)[C@@H](O)[C@@H](O)[C@@H]4O)[C@H](O[C@@H]4O[C@H](CO)[C@H](O)[C@H](O)[C@H]4O)[C@H]3NC(C)=O)[C@H]2O)[C@H](O[C@@H]2O[C@@H](C)[C@@H](O)[C@@H](O)[C@@H]2O)[C@H]1NC(C)=O` are 0.023 mM and 0 kcal/mol.
On the same counts, the results for `CO[C@@H]1O[C@H](CO)[C@@H](O[C@@H]2O[C@@H](C)[C@H](O)[C@@H](O)[C@H]2O)[C@H](O[C@@H]2O[C@H](CO)[C@H](O)[C@H](O)[C@H]2O)[C@H]1NC(C)=O` are 7.02 mM and 0.5 kcal/mol.
On the same counts, the results for `CO[C@@H]1O[C@H](CO)[C@H](O)[C@H](O[C@@H]2O[C@H](CO)[C@@H](O)[C@H](O[C@@H]3O[C@H](CO)[C@H](O)[C@H](O)[C@H]3O)[C@H]2NC(C)=O)[C@H]1O` are 0.538 mM and 1.8 kcal/mol.
In experiment [1], `CCCCCCO[C@@H]1O[C@H](CO)[C@@H](O[C@@H]2O[C@H](CO)[C@H](O)[C@H](O[C@@H]3O[C@H](CO)[C@@H](O)[C@H](O[C@@H]4O[C@H](CO)[C@H](O)[C@H](O)[C@H]4O)[C@H]3NC(C)=O)[C@H]2O)[C@H](O)[C@H]1NC(C)=O` gave an IC50 of 1.2 mM. The deltaG in the experiment filed under Mus musculus came out at 2.3 kcal/mol.
On the same counts, the results for `CO[C@@H]1O[C@H](CO)[C@@H](O[C@@H]2O[C@@H](C)[C@@H](O)[C@@H](O)[C@@H]2O)[C@H](O[C@@H]2O[C@H](CO)[C@H](O)[C@H](O)[C@H]2O)[C@H]1NC(C)=O` are 3.09 mM and 0 kcal/mol.
